Where a name gives a salt, the structure may show the parent alone.
Target: T1, protein farnesyltransferase (Rattus norvegicus, UniProt Q02293+Q04631)
T1 construct: Rat brain protein farnesyltransferase activity is measured; from tissue; host or cells: rat brain; purified according to Reiss et al., Cell 62:81-88 (1990), steps one through three
Assay: in vitro inhibition of protein farnesyltransferase (scintillation proximity assay, biotin-K Ras B fragment)
Type: biochemical
Conditions: for inhibition at 0.1 µM / inhibition at 0.01 µM / inhibition at 1 µM: read-out: % inhibition of farnesyltransferase
Summary of the method: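 Scintillation proximity read-out of farnesylation, using a biotinylated K Ras B fragment (0.1 mM final) in place of biotin-lamin. Enzyme purified from rat brain; results given as % inhibition.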

CCCCS(=O)(=O)N(Cc1ccc(C(=O)N[C@@H](CCSC)C(=O)O)c(-c2ccccc2C)c1)[C@H](CSCC)CC1CCCCC1 [Example 950, N-[4-N-Butanesulfoyl-N-(3-Cyclohexyl-1-ethylthiopropan-2-yl)aminomethyl-2-(2-methylphenyl)-benzoyl]methionine]
inhibition at 0.1 µM (at 1 × 10^-7 M): 71%

CCSC[C@H](CC1CCCCC1)N(Cc1ccc(C(=O)N[C@@H](CCSC)C(=O)O)c(-c2ccccc2C)c1)S(=O)(=O)c1ccccc1 [Example 951]
inhibition at 0.1 µM (at 1 × 10^-7 M): 71%

CSCC[C@H](NC(=O)c1ccc(NC(=O)[C@@H]2C[C@@H](O)CN2)cc1-c1ccccc1)C(=O)O [Example 952, N-[4-(4-hydroxyprolinylamino)-2-phenylbenzoyl]methionine]
inhibition at 10 µM (at 1 × 10^-5 M): > 50%

CSCC[C@H](NC(=O)c1ccc(NC[C@@H]2C[C@H](S)CN2)cc1-c1ccccc1)C(=O)O [Example 959, N-[4-((2S,4S)-4-thiolpyrrolidin-2-ylmethylamino)-2-phenylbenzoyl]methionine]
inhibition at 0.1 µM (at 1 × 10^-7 M): > 50%

CSCC[C@H](NC(=O)c1ccc(NC[C@H]2NCC[C@H]2S)cc1-c1ccccc1)C(=O)O [Example 960, N-[4-((2S,4R)-4-thiolpyrrolidin-2-ylmethylamino)-2-phenylbenzoyl]methionine]
inhibition at 0.01 µM (at 1 × 10^-8 M): > 50%

CSCC[C@H](NC(=O)c1ccc(NC(=O)OCCCl)cc1-c1ccccc1)C(=O)O [Example 979, N-[4-(N-2-chloroethoxycarbonyl)amino-2-phenylbenzoyl]methionine]
inhibition at 1 µM (at 1 × 10^-6 M): 26%

CSCC[C@H](NC(=O)c1ccc(CN(C)C(C)(C)Cc2ccccc2)cc1-c1ccccc1C)C(=O)O [Example 982, N-[4-(N-Methyl-N-(1,1-dimethyl-2-phenylethyl)aminomethyl)-2-(2-methylphenyl)-benzoyl]methionine lithium salt]
inhibition at 1 µM (at 1 × 10^-6 M): 64%

CCCCC(OCc1ccc(C(=O)N[C@@H](CCSC)C(=O)O)c(-c2ccccc2C)c1)c1cncs1 (some centres unmarked) [Example 985]
% inhibition of farnesyltransferase (at 1 × 10^-8 M): 89%

CSCC[C@H](NC(=O)c1ccc(CN(CCC2CCCCC2)Cc2cncs2)cc1-c1ccccc1C)C(=O)O [Example 986]
inhibition at 0.01 µM (at 1 × 10^-8 M): 95%

CSCC[C@H](NC(=O)c1ccc(COC2CCN(Cc3ccccc3)C2)cc1-c1ccccc1C)C(=O)O (some centres unmarked) [Example 987]
% inhibition of farnesyltransferase (at 1 × 10^-6 M): 93%

CSCC[C@H](NC(=O)c1ccc(CN2CCC(OCc3ccccc3)C2)cc1-c1ccccc1C)C(=O)O (some centres unmarked) [Example 988]
% inhibition of farnesyltransferase (at 1 × 10^-6 M): 92%

CSCC[C@H](NC(=O)c1ccc(CN2CCCC(OCc3ccccc3)C2)cc1-c1ccccc1C)C(=O)O (some centres unmarked) [Example 989]
% inhibition of farnesyltransferase (at 1 × 10^-6 M): 88%

CSCC[C@H](NC(=O)c1ccc(CN2CCCC(OCC3CCCCC3)C2)cc1-c1ccccc1C)C(=O)O (some centres unmarked) [Example 990]
% inhibition of farnesyltransferase (at 1 × 10^-7 M): 84%

CSCC[C@H](NC(=O)c1ccc(CN2CCC[C@H]2COc2ccccc2)cc1-c1ccccc1C)C(=O)O [Example 991]
% inhibition of farnesyltransferase (at 1 × 10^-8 M): 69%

CSCC[C@H](NC(=O)c1ccc(CN2CCC[C@H]2COCC2CCCCC2)cc1-c1ccccc1C)C(=O)O [Example 992]
% inhibition of farnesyltransferase (at 1 × 10^-8 M): 93%

CSCC[C@H](NC(=O)c1ccc(CN2CCC[C@@H]2COCc2ccccc2)cc1-c1ccccc1C)C(=O)O [Example 993]
% inhibition of farnesyltransferase (at 1 × 10^-7 M): 90%

CSCC[C@H](NC(=O)c1ccc(CO[C@H](CSC(C)(C)C)Cc2ccccc2)cc1-c1ccccc1C)C(=O)O [Example 994]
% inhibition of farnesyltransferase (at 1 × 10^-8 M): 83%

CCSC[C@H](CCc1ccccc1)NCc1ccc(C(=O)N[C@@H](CCSC)C(=O)O)c(-c2ccccc2C)c1 [Example 995]
inhibition at 0.01 µM (at 1 × 10^-8 M): 92%

CCCCS(=O)(=O)N(Cc1ccc(C(=O)N[C@@H](CCSC)C(=O)O)c(-c2ccccc2C)c1)CC1CCCCC1 [Example 996, N-[4-(N-cyclohexylmethyl-N-butanesulfonylaminomethyl)-2-(2-methylphenyl)benzoyl]methionine]
inhibition at 0.01 µM (at 1 × 10^-8 M): 80%

N-[4-(3-furan-2-yl-2-phenylprop-2-en-1-ylaminomethyl)-2-(2-methylphenyl)benzoyl]methionine lithium salt [Example 537]
% inhibition of farnesyltransferase (at 1 × 10^-6 M): 97%

— US6310095A, “Inhibitors of protein isoprenyl transferases” (University of Pittsburgh, priority 1998, dated 2001)
